Results from article PMC6249242, “Metabolic engineering of Escherichia coli for de novo biosynthesis of vitamin B12” (Nature Communications, 2018).

How the values were obtained:
CobB = CobB (Rhodobacter capsulatus, UniProt O68108); experiment: in vitro amidation, LC-MS of HBAD; type: biochemical
BluE = target: T1, BluE (Rhodobacter capsulatus, UniProt D5AV17); experiment: crude enzyme kinase assay, LC-MS of L-threonine phosphate; also in vivo HPLC; type: biochemical
T1 construct: gene RCAP_rcc02055
T1 sequence (D5AV17 entry or part of it): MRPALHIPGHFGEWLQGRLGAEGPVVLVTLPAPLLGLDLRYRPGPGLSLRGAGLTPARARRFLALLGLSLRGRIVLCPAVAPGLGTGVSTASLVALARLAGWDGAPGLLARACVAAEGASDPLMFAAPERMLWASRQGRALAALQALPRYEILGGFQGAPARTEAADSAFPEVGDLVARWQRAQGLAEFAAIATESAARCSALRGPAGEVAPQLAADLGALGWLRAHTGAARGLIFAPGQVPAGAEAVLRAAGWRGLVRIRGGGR

purified protein = substrate: C[C@@H](OP(=O)(O)O)[C@H](N)C(=O)O; experiment: purified protein; conditions: pH 6.8 PIPES, 37 °C, 500 µM pyridoxal phosphate (standard assay), substrate taken from the assay description

CobB, sequence (O68108 whole entry): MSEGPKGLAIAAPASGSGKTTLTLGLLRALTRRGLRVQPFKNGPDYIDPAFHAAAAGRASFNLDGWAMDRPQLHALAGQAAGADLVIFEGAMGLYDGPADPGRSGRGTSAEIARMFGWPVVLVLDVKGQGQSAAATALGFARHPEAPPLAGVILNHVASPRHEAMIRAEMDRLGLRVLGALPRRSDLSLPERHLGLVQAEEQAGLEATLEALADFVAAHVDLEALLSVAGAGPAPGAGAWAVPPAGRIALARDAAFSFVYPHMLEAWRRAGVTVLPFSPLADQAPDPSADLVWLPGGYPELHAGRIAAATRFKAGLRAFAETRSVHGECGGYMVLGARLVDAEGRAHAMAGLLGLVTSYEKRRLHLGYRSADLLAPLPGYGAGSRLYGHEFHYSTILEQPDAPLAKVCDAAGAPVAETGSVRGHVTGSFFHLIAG

Molecule: C/C1=C2N=C(/C=C3\N/C(=C(/C)C4=NC(C)(C5N=C1C(C)(CCC(=O)O)C5CC(=O)O)C(C)(CC(=O)O)C4CCC(=O)O)C(C)(CC(=O)O)C3CCC(=O)O)C(C)(C)C/2CCC(=O)O (stereo not drawn) [hydrogenobyrinic acid]
- in vitro amidation, LC-MS of HBAD (CobB): it was completely converted to HBAD by CobB enzyme from R. capsulatus in vitro

Molecule: C[C@@H](O)[C@H](N)C(=O)O [L-threonine]
- crude enzyme kinase assay, LC-MS of L-threonine phosphate; also in vivo HPLC (BluE): crude BluE activity was confirmed via an in vitro assay

B1: RcCobC (Rhodobacter capsulatus SB 1003) (protein)
chain: MRDHGGNSDAARAQYGGEDWIDLSTGINRQPWPVPDLPAHVWTDLPTATAKAALLDAAAAAFGTPAPGVALAGAQQAIQLIPRLWAPGRARVLGPTYNEHAAALRAAGWQVEEVSTLGALAGADLAVVVNPNNPDGQRHPAAALRALSLQVGRLVVDESFADASPAASVTAKASRRMLVLRSFGKFYGLAGLRLGFVFADAATVAALSEMAGPWPVSGPALEIGRRALLDRNWAMATALRLGAETMRMDALAARAGWRLVGGTALFRTYATPDAAAAQDHLARARIWSRVFPYAADWLRLGLPGNESEWMRLEKALTNEL
- Km (purified protein): 1890 µM
